Results taken from ChEMBL document CHEMBL1201862, “PubChem BioAssay data set” (2004).
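Tested at 5 concentrations; 48 h exposure; 96-well plates; endpoints linearly interpolated, else capped at highest concentration. The concentration for 50% growth inhibition is given as GI50.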 Active and inactive are the calls of the source. Rule as the data show it: active = GI50 up to about 1.1 µM and inactive = higher.

What was measured:
Assay in all cases: NCI tumour cell line growth inhibition, 48 h
SW-620 = tested on: SW-620
KM-20L2 = tested on: KM-20L2
HOP-62 = tested on: HOP-62
SF-295 = tested on: SF-295
M19-MEL = tested on: M19-MEL
K562 = tested on: K562
OVCAR-3 = tested on: OVCAR-3
786-0 = tested on: 786-0
SF-268 = tested on: SF-268
SNB-78 = tested on: SNB-78
U-251 = tested on: U-251
UACC-62 = tested on: UACC-62
HCT-116 = tested on: HCT-116
SR = tested on: SR
OVCAR-4 = tested on: OVCAR-4
OVCAR-8 = tested on: OVCAR-8
EKVX = tested on: EKVX
COLO 205 = tested on: COLO 205
M14 = tested on: M14
KM12 = tested on: KM12
IGROV-1 = tested on: IGROV-1
SK-MEL-5 = tested on: SK-MEL-5
NCI-H226 = tested on: NCI-H226
MOLT-4 = tested on: MOLT-4
SNB-75 = tested on: SNB-75
OVCAR-5 = tested on: OVCAR-5
LOX IMVI = tested on: LOX IMVI
ACHN = tested on: ACHN
NCI-H23 = tested on: NCI-H23
LXFL 529 = tested on: LXFL 529
SK-MEL-2 = tested on: SK-MEL-2
RXF 393 = tested on: RXF 393
DMS-273 = tested on: DMS-273
HL-60 = tested on: HL-60
UO-31 = tested on: UO-31
SK-MEL-28 = tested on: SK-MEL-28
HCT-15 = tested on: HCT-15
SNB-19 = tested on: SNB-19
NCI-H522 = tested on: NCI-H522
RPMI-8226 = tested on: RPMI-8226
A549 = tested on: A549
NCI-H460 = tested on: NCI-H460
DMS-114 = tested on: DMS-114
SN12C = tested on: SN12C
TK-10 = tested on: TK-10
CCRF-CEM = tested on: CCRF-CEM
HCC 2998 = tested on: HCC 2998
Malme-3M = tested on: Malme-3M
XF498 = tested on: XF498
HT-29 = tested on: HT-29
SF-539 = tested on: SF-539
NCI/ADR-RES = tested on: NCI/ADR-RES
HOP-92 = tested on: HOP-92
UACC-257 = tested on: UACC-257
CAKI-1 = tested on: CAKI-1
DLD-1 = tested on: DLD-1
SK-OV-3 = tested on: SK-OV-3
MCF7 = tested on: MCF7
A498 = tested on: A498
HOP-18 = tested on: HOP-18

SMILES: COC(=O)c1c(C(=O)OC)c2cc(C(=O)c3ccccc3)ccn2c1Cl
- GI50 (SW-620): 71 µM (inactive)
- GI50 (KM-20L2): 55 µM (inactive)
- GI50 (HOP-62): 37.2 µM (inactive)
- GI50 (SF-295): 26.4 µM (inactive)
- GI50 (M19-MEL): 32.5 µM (inactive)
- GI50 (K562): 29 µM (inactive)
- GI50 (OVCAR-3): 21.6 µM (inactive)
- GI50 (786-0): 44.6 µM (inactive)
- GI50 (SF-268): 43.2 µM (inactive)
- GI50 (SNB-78): 50.9 µM (inactive)
- GI50 (U-251): 44.2 µM (inactive)
- GI50 (UACC-62): 24.9 µM (inactive)
- GI50 (HCT-116): 39.6 µM (inactive)
- GI50 (SR): 15.4 µM (inactive)
- GI50 (OVCAR-4): 31.2 µM (inactive)
- GI50 (OVCAR-8): 30 µM (inactive)
- GI50 (EKVX): 31 µM (inactive)
- GI50 (COLO 205): 35.8 µM (inactive)
- GI50 (M14): 34 µM (inactive)
- GI50 (KM12): 24 µM (inactive)
- GI50 (IGROV-1): 53.1 µM (inactive)
- GI50 (SK-MEL-5): 16.2 µM (inactive)
- GI50 (NCI-H226): 22.3 µM (inactive)
- GI50 (MOLT-4): 17.7 µM (inactive)
- GI50 (SNB-75): 12.9 µM (inactive)
- GI50 (OVCAR-5): 48.4 µM (inactive)
- GI50 (LOX IMVI): 36.1 µM (inactive)
- GI50 (ACHN): 43.8 µM (inactive)
- GI50 (NCI-H23): 23.1 µM (inactive)
- GI50 (LXFL 529): 30 µM (inactive)
- GI50 (SK-MEL-2): 48.4 µM (inactive)
- GI50 (RXF 393): 23.7 µM (inactive)
- GI50 (DMS-273): 27.6 µM (inactive)
- GI50 (HL-60): 22.8 µM (inactive)
- GI50 (UO-31): 28.2 µM (inactive)
- GI50 (SK-MEL-28): 35.8 µM (inactive)
- GI50 (HCT-15): 20.9 µM
- GI50 (SNB-19): 34 µM (inactive)
- GI50 (NCI-H522): 19.5 µM (inactive)
- GI50 (RPMI-8226): 16.3 µM (inactive)
- GI50 (A549): 41.5 µM (inactive)
- GI50 (NCI-H460): 50 µM (inactive)
- GI50 (DMS-114): 23.5 µM (inactive)
- GI50 (SN12C): 49.8 µM (inactive)
- GI50 (TK-10): 67.1 µM (inactive)
- GI50 (CCRF-CEM): 29.7 µM (inactive)
- GI50 (HCC 2998): > 100 µM (inactive)
- GI50 (Malme-3M): 52.7 µM (inactive)
- GI50 (XF498): 24.3 µM (inactive)
- GI50 (HT-29): 47.1 µM (inactive)
- GI50 (SF-539): 48.6 µM (inactive)

SMILES: NC(=S)N/N=C/c1ccc(OC(=O)COc2ccccc2Cl)cn1
- GI50 (SW-620): 31 µM (inactive)
- GI50 (KM-20L2): 40 µM (inactive)
- GI50 (HOP-62): 20.5 µM (inactive)
- GI50 (SF-295): > 62.7 µM (inactive)
- GI50 (M19-MEL): 25.9 µM (inactive)
- GI50 (K562): 23.1 µM (inactive)
- GI50 (OVCAR-3): 23.2 µM (inactive)
- GI50 (SF-268): 17.9 µM (inactive)
- GI50 (SNB-78): > 80.9 µM (inactive)
- GI50 (NCI/ADR-RES): 15.4 µM (inactive)
- GI50 (U-251): 25.1 µM (inactive)
- GI50 (UACC-62): 14.6 µM (inactive)
- GI50 (HCT-116): 26.5 µM (inactive)
- GI50 (OVCAR-4): 32.4 µM (inactive)
- GI50 (OVCAR-8): 15.7 µM (inactive)
- GI50 (EKVX): 56.4 µM (inactive)
- GI50 (COLO 205): 44.6 µM (inactive)
- GI50 (KM12): 75.7 µM (inactive)
- GI50 (IGROV-1): > 93.1 µM (inactive)
- GI50 (SK-MEL-5): 24.8 µM (inactive)
- GI50 (NCI-H226): 26.5 µM (inactive)
- GI50 (HOP-92): 12.9 µM (inactive)
- GI50 (MOLT-4): 16.3 µM (inactive)
- GI50 (SNB-75): > 54.6 µM (inactive)
- GI50 (UACC-257): 50.1 µM (inactive)
- GI50 (CAKI-1): 44.2 µM (inactive)
- GI50 (OVCAR-5): 44.4 µM (inactive)
- GI50 (LOX IMVI): 27.6 µM (inactive)
- GI50 (NCI-H23): 12.9 µM (inactive)
- GI50 (DLD-1): 33 µM (inactive)
- GI50 (SK-MEL-2): 42.3 µM (inactive)
- GI50 (RXF 393): > 37.5 µM (inactive)
- GI50 (DMS-273): 21 µM (inactive)
- GI50 (HL-60): 18.4 µM (inactive)
- GI50 (UO-31): 36.8 µM (inactive)
- GI50 (SK-MEL-28): 65 µM (inactive)
- GI50 (HCT-15): 39.5 µM
- GI50 (SNB-19): 47.8 µM (inactive)
- GI50 (NCI-H522): 18.1 µM (inactive)
- GI50 (RPMI-8226): 46.3 µM (inactive)
- GI50 (A549): 53.6 µM (inactive)
- GI50 (SK-OV-3): > 67 µM (inactive)
- GI50 (NCI-H460): 35.2 µM (inactive)
- GI50 (MCF7): 10.5 µM (inactive)
- GI50 (SN12C): 30.5 µM (inactive)
- GI50 (CCRF-CEM): 6.1 µM (inactive)
- GI50 (HCC 2998): 36.6 µM (inactive)
- GI50 (Malme-3M): 24.4 µM (inactive)
- GI50 (XF498): 40 µM (inactive)
- GI50 (HT-29): 48 µM (inactive)
- GI50 (A498): > 72.8 µM (inactive)
- GI50 (HOP-18): 39.3 µM (inactive)
- GI50 (SF-539): 14.3 µM (inactive)
